Measured values published in article PMC3098202, “Inhibition of Both HIV-1 Reverse Transcription and Gene Expression by a Cyclic Peptide that Binds the Tat-Transactivating Response Element (TAR) RNA” (PLoS Pathogens, 2011).
Like-named read-outs stand apart in the source and are kept apart here. Peptide text beside a SMILES is read from it.

How the values were obtained:
HIV-1NL4-3 [1] = assay: Inhibition of HIV-1 NL4-3 replication in U87.CD4.CXCR4 cells (RT activity in supernatant); type: cell-based
Description: Drug sensitivity assays were performed on U87.CD4.CXCR4/CCR5 cells and in peripheral blood mononuclear cells (PBMC). Peptidomimetics or control drugs were added to cells to yield final concentrations between 100 µM and 10 nM. Cells were incubated with drug for 1 h and exposed to the virus at a multiplicity of infection of 0.001, incubated with the virus for 24 h, and input virus washed away. Supernatant aliquots were removed and virus production was quantified by reverse transcriptase assay. Virus production at each drug concentration was normalized and the relative values were plotted versus drug concentration to determine 50% inhibitory concentrations (IC50). Variations on these drug susceptibility assays are defined in each figure and related text. For the time-of-drug-inhibition experiments, HIV-1 was spinonculated onto U87-CD4/CCR5 cells as previously described. The cells were washed twice with cold phosphate buffered saline (PBS) to remove unbound virions. Cells were resuspended in cold medium and split into 96-well plates (50 µl/well). […] Cells were incubated for 72 h and then treated with lysis buffer and luciferase activity was determined. The same procedure was utilized for the time-of-drug-addition experiment involving cell-to-cell fusion. […]

[2] = tested on: Tat-dependent transcription from HIV-1 LTR; assay: Tat-dependent transactivation in cell-free transcription; type: biochemical
[3] = tested on: Tat-mediated transactivation of HIV-1 LTR; assay: LTR-luciferase reporter + Tat in 293T cells (Figure 3B); type: cell-based; conditions: 10 µM
CMV promoter = CMV promoter luciferase control reporter in 293T cells; type: cell-based
HIV-1 LTR promoter = assay: pLTR.LUC reporter alone or co-transfected with HIV-1NL4-3 in 293T cells (Figure 4); type: cell-based
HIV-1NL4-3 [4] = assay: Infection of U87.CD4.CXCR4 cells with supernatants of L-50-treated 293T transfections (Figure 4D); type: cell-based
Description: To test whether the virus released from transfected cells could be inhibited by L-50 under conditions of multiple-cycle growth, virus-containing supernatants from 293T transfections (containing L-50) were used to infect U87.CD4.CXCR4 cells (which support multiple rounds of HIV-1 replication) and viral progeny were measured 10 days post-infection. […] Removal of L50 from virus was attempted by pelleting virus from supernatant of L50-treated cells transfected with NL4-3. It is important to note that virus production was already decreased by L50 at least 50% from transfected cells.

[5] = tested on: HIV-1NL4-3 carrying firefly luciferase; type: cell-based; conditions: for t1/2, time of drug addition that maintains 50% inhibition: AMD3100 10 µM, T20 10 µM, 3TC 100 µM, Raltegravir 10 µM, DRB 50 µM
HIV-1Luc-AM = type: cell-based
[6] = tested on: murine leukemia virus (MLV); type: cell-based
[7] = tested on: (-) strand strong stop DNA synthesis by recombinant HIV-1 RT (p66/p51) on wild type TAR template; assay: Reconstituted in vitro reverse transcription, wild type R_U5_pbs RNA template; type: biochemical
Description: This assay measures the synthesis of (-) strand strong stop DNA by recombinant HIV-1 RT (p66/p51) from an 18 nt DNA primer, pre-annealed to an HIV-1 RNA template encompassing the repeat (R), 5′ unique sequence (U5), and the primer binding sequence (PBS) [49].
HIV-1 RNA representing the wild type R, U5, pbs, and uncoding sequence (270 nt) (wt R_U5_pbs RNA) was produced by in vitro T3 transcription (T3 MegaScript, Ambion) from a PCR product (with T3 extended primer) derived from NL4-3. […] The DNA primer (18 nt), complementary to the primer binding sequence (3′ end of tRNA^Lys,3), was annealed to the template as described [78]. The DNA primer was annealed to the various HIV-1 RNA templates by denaturation and annealing conditions previously described [78]. […] Reactions were incubated at 37°C for 45 min and then quenched with formamide EDTA loading buffer [78] for subsequent electrophoresis on a 8% denaturing polyacrylamide gel. Gels were autoradiographed and analyzed with a BioRad phosphorimager.

[8] = tested on: (-) strand strong stop DNA synthesis by HIV-1 RT on mutant TAR template; assay: Reconstituted in vitro reverse transcription, mutant TAR RNA template; type: biochemical; conditions: 8 µM
Description: To determine if L-50 inhibition of reverse transcription was dependent on the high affinity Tat-binding site located at the TAR bulge, mutations that inactivate Tat-binding were introduced into the RNA template (Figure 9A).
The mutant TAR RNA transcript (with mutations 5′-UCUG-3′ to 5′-UGGU-3′ in the bulge) was generated by T3 transcription from a PCR product with the forward primer having the nt substitutions for site-directed mutagenesis. […] The DNA primer (18 nt), complementary to the primer binding sequence (3′ end of tRNA^Lys,3), was annealed to the template as described [78]. The DNA primer was annealed to the various HIV-1 RNA templates by denaturation and annealing conditions previously described [78]. […] Reactions were incubated at 37°C for 45 min and then quenched with formamide EDTA loading buffer [78] for subsequent electrophoresis on a 8% denaturing polyacrylamide gel. Gels were autoradiographed and analyzed with a BioRad phosphorimager.

HIV-1 TAR = conditions: cited from earlier work
Text: Linear peptide derivatives have been used previously to target TAR RNA and block Tat binding, [17], [20], [21] but their utility was limited by conformational flexibility which allowed non-specific RNA binding. To avoid this problem we have developed conformationally constrained mimics of HIV-1 Tat [24]–[27] based on the structure of the BIV (Bovine Immunodeficiency Virus) Tat-TAR complex, [29] (Figure 1). Specifically, we constructed a series of ß-hairpin mimics with 12-residue loops on a heterochiral D-Pro-L-Pro dipeptide scaffold. This D-Pro-L-Pro scaffold strongly ... || Our design of inhibitors of the TAR RNA-Tat protein interaction started with the assumption that constrained peptidomimetics would provide effective rationale to block the relatively large interfaces formed between the viral protein and its cognate RNA [24]–[27]. The D-Pro-L-Pro template restricts pharmacophores into planar ß-hairpin structures with side chains emerging from each side. […] Specific and high affinity binding allow ...

[9] = tested on: Tat/Rev-dependent luciferase after 293T (HIV-1 Env) / U87.CD4.CXCR4 cell fusion; conditions: for t1/2, time of drug addition that maintains 50% inhibition, cell-to-cell fusion: monophasic, Tat/Rev-dependent luciferase in cell lysates, triplicate
BIV TAR RNA = conditions: Discussion; cited from earlier work
Text: Our design of inhibitors of the TAR RNA-Tat protein interaction started with the assumption that constrained peptidomimetics would provide effective rationale to block the relatively large interfaces formed between the viral protein and its cognate RNA [24]–[27]. The D-Pro-L-Pro template restricts pharmacophores into planar ß-hairpin structures with side chains emerging from each side. […] Specific and high affinity binding allow ...

[10] = tested on: HIVNL4-3 transcription / virus production; assay: Single-cycle growth assay, 293T cells transfected with pNL4-3 (Figure 3C); conditions: 50 µM; 293T cells transfected with HIVNL4-3; monitored by RT activity
HIV NL4-3 = assay: Inhibition of HIV NL4-3 in PHA/IL-2 stimulated human PBMC; type: cell-based, HIV-1; conditions: Human immunodeficiency virus 1, NL43; human PBMC stimulated with PHA/IL-2; RT activity in supernatant at 8 and 10 days post-infection
Description: Figure 2 Testing the susceptibility of HIV-1 to inhibition by Tat peptidomimetics. (A) Comparison of the relative inhibition of the HIV-1 NL4-3 laboratory strain by three lead Tat peptidomimetics. Virus production in cell free supernatant was measured using an endogenous RT assay. […] (D) L-50 inhibition of viral replication of three primary CCR5-tropic HIV-1 isolates measured in U87.CD4.CCR5 cells (A1 is the subtype A Rawandan isolate A1-92RW009, B5 is the subtype B isolate B5-91US056 from the USA and C5 is the subtype C isolate C5-97ZA003 from South Africa) and of CXCR4-tropic strains (D1 is the Ugandan subtype D isolate D1-92UG021, E6 is the subtype A/E circulating recombinant isolate CRF01_AE from Thailand) as well as the laboratory strain HIV-1NL4-3 measured in U87.CD4.CXCR4 cell cultures. […] (E) Inhibition of HIV NL4-3 was also measure in human peripheral blood mononuclear cells stimulated with PHA/IL-2. […] Virus production was measured at 8 and 10 days post-infection by the RT activity in the supernatant (cpm/mL).
Drug sensitivity assays were performed on U87.CD4.CXCR4/CCR5 cells and in peripheral blood mononuclear cells (PBMC). […] Supernatant aliquots were removed and virus production was quantified by reverse transcriptase assay. […] Cells were incubated for 72 h and then treated with lysis buffer and luciferase activity was determined. […]

[11] = tested on: HIV-1NL4-3 carrying firefly luciferase; conditions: cited from earlier work
Text: There is also evidence that Tat plays a role in viral reverse transcription, although much of this work has been controversial. Loss of function Tat mutants have been reported to impair reverse transcription 3- to 5-fold compared to wild type HIV-1 both in infected T cells and in endogeneous reverse transcription reactions, [69]. Tat-mediated RNA secondary structure remodeling may facilitate obligatory strand transfers during viral DNA synthesis by reverse transcriptase. However, it is possible to create replication-competent viruses where the TAR RNA sequence is replaced by a ...

[12] = L50 250 µM, synchronized infection, luciferase at 72 h, triplicate
[13] = synchronized infection, luciferase at 72 h, triplicate
[14] = U87.CD4.CXCR4 cells, Tat-independent SV40-driven reporter

Compound: CC[C@H](C)[C@@H]1NC(=O)[C@H](CCCNC(=N)N)NC(=O)[C@H](CCCNC(=N)N)NC(=O)[C@H](CCCCN)NC(=O)CNC(=O)[C@H](CCCNC(=N)N)NC(=O)[C@H]([C@@H](C)O)NC(=O)[C@H](CCCNC(=N)N)NC(=O)[C@H](C(C)C)NC(=O)[C@H](CCCNC(=N)N)NC(=O)[C@@H]2CCCN2C(=O)[C@H]2CCCN2C(=O)[C@H](CCCNC(=N)N)NC(=O)[C@H](CCCNC(=N)N)NC1=O [L-50] (HELM PEPTIDE1{R.V.R.T.R.G.K.R.R.I.R.R.[dP].P}$PEPTIDE1,PEPTIDE1,1:R1-14:R2$$$V2.0)
- Inhibition of HIV-1NL4-3 replication (HIV-1NL4-3 [1]; Figure 2A): able to inhibit replication
- IC50 ([2]; cell-free transcription, nuclear extract, recombinant Tat, 20 min at 30°C, read-out: IC50, decrease of full-length transcripts (ρ)): 50 nM
- Production of short transcripts (τ) ([2]; internal control for non-specific inhibition of transcription): largely unaffected
- Reduction of Tat-mediated transactivation [3]: 53%
- Reduction of transcription from control CMV promoter (CMV promoter; 10 µM, 293T cells): 12%
- Reduction of CMV promoter-driven luciferase activity (CMV promoter; 50 µM, 293T cells cotransfected with HIVNL4-3): less than 5%
- CMV promoter-driven luciferase expression with HIV-1NL4-3 (CMV promoter; 293T cells, Figure 4B): not significantly inhibited
- Decrease in luciferase expression (pLTR.LUC + HIV-1NL4-3) (HIV-1 LTR promoter; 200 µM, 293T cells, p = 0.03, N = 5): 1.7 fold
- HIV-1 virion expression (HIV-1 LTR promoter; 200 µM, RT activity in cell-free supernatant of transfected 293T cells): modest, but reproducible reduction
- Luciferase expression in cells transfected with either reporter plasmid alone (HIV-1 LTR promoter; 293T cells, no Tat): did not inhibit
- Decrease of virus production from transfected cells (HIV-1NL4-3 [4]; 293T cells transfected with NL4-3): at least 50%
- Viral progeny 10 days post-infection (HIV-1NL4-3 [4]; U87.CD4.CXCR4 cells infected with virus made in the presence of L-50): No measurable viral progeny
- t1/2, first (early) phase of biphasic inhibition [5, 12]: 1.8 h
- t1/2, second (late) phase of biphasic inhibition [5, 12]: 35.7 h
- Block of viral replication in the initial inhibitory phase ([5]; added up to approximately 2 h post infection): ~100%
- Luciferase expression in HIV-1Luc-AM infected cells (HIV-1Luc-AM): efficiently blocked
- Inhibition of MLV [6]: did not inhibit
- Inhibition of MLV replication (words, Discussion) [6]: did not
- Inhibition of (−) strong stop synthesis on the wild type template ([7]; 8 µM): 80%
- IC50 ([7]; read-out: IC50, inhibition of (−) strand strong stop DNA synthesis (as printed in picture of Figure 8B)): 5500 ± 570 nM
- IC50 ([7]; recombinant HIV-1 RT, 18 nt DNA primer, RNA template ∼2 µM, 37°C 45 min, triplicate, read-out: IC50, inhibition of (−) strand strong stop DNA synthesis): 5500 ± 570 nM
- Inhibition of (−) strong stop DNA synthesis on template with mutations in the TAR L-50 binding site [8]: less than 10%
- Affinity for HIV-1 TAR (HIV-1 TAR; Discussion): nanomolar affinities
- Kd (HIV-1 TAR; in vitro): 1 nM
- Inhibition of cell-to-cell fusion [9]: no measurable inhibition
- t1/2, time of drug addition that maintains 50% inhibition, cell-to-cell fusion [9]: 8.2 h
- Discrimination against BIV TAR RNA sequence (BIV TAR RNA): effectively discriminated
- Inhibition of production of the viral RNA [10]: 76%

Compound: c1cc(CN2CCCNCCNCCCNCC2)ccc1CN1CCCNCCNCCCNCC1 [AMD3100, reference compound]
- t1/2, time of drug addition that maintains 50% inhibition [5, 13]: 0.77 h
- Inhibition of cell-to-cell fusion [9]: highly sensitive to inhibition

Compound: OC[C@H]1O[C@@H](n2cnc3cc(Cl)c(Cl)cc32)[C@H](O)[C@@H]1O [DRB, 5,6-dichloro-1-ß-D-ribobenzimidazole, reference compound]
- t1/2, time of drug addition that maintains 50% inhibition [5, 13]: 35.3 h
- Luciferase expression in HIV-1Luc-AM infected cells (HIV-1Luc-AM; [14]): efficiently inhibited
- t1/2, time of drug addition that maintains 50% inhibition, cell-to-cell fusion [9]: 11.3 h

Compound: Cc1ccnc2c1NC(=O)c1cccnc1N2C1CC1 [NVP]
- IC50 (HIV NL4-3): 65 nM
- t1/2 of nevirapine in time-of-drug-addition [11]: ~7 h

Compound: Cc1nnc(C(=O)NC(C)(C)c2nc(C(=O)NCc3ccc(F)cc3)c(O)c(=O)n2C)o1 [Raltegravir, reference compound]
- t1/2, time of drug addition that maintains 50% inhibition [5, 13]: 11.5 h

Compound: Cc1cn([C@H]2C[C@H](N=[N+]=[N-])[C@@H](CO)O2)c(=O)[nH]c1=O [AZT]
- Inhibition of MLV replication (words, Discussion) [6]: blocked MLV replication
- Inhibition of MLV replication ([6]; 100 µM): completely blocked

Compound: Nc1ccn([C@@H]2CS[C@H](CO)O2)c(=O)n1 [3TC]
- IC50 (HIV-1NL4-3 [1]; Human immunodeficiency virus 1, virus production by RT assay, MOI 0.001): 120 ± 30 nM
- IC50 (HIV NL4-3): 10 nM
- Luciferase expression in HIV-1Luc-AM infected cells (HIV-1Luc-AM; [14]): efficiently inhibited
- Inhibition of MLV replication (words, Discussion) [6]: blocked MLV replication
